Key:
[1] = molecular target: Toll-like receptor 2 (Homo sapiens) (UniProt O60603); experiment: Agonist activity at human TLR2
[2] = Permeability of compound at pH 7.4 by PAMPA; format: ADME; settings: read-out: permeability
[3] = AUClast in Balb/c mouse at […], iv measured after 2 hrs by LC-MS analysis; format: ADME, organism-based; parameters: time 2 hrs, dose 0.15 mg/kg, route iv; settings: in vivo
Blood [4] = experiment: Induction of TNF-alpha secretion in human whole blood; format: functional, tissue-based
[5] = Metabolic stability in cynomolgus monkey liver microsomes assessed as half-life; format: ADME, Macaca fascicularis, Microsome
[6] = molecular target: Toll-like receptor 4 (Homo sapiens) (UniProt O00206); experiment: Agonist activity at human TLR4
Sequence of Toll-like receptor 4 (Homo sapiens) (O00206 whole entry): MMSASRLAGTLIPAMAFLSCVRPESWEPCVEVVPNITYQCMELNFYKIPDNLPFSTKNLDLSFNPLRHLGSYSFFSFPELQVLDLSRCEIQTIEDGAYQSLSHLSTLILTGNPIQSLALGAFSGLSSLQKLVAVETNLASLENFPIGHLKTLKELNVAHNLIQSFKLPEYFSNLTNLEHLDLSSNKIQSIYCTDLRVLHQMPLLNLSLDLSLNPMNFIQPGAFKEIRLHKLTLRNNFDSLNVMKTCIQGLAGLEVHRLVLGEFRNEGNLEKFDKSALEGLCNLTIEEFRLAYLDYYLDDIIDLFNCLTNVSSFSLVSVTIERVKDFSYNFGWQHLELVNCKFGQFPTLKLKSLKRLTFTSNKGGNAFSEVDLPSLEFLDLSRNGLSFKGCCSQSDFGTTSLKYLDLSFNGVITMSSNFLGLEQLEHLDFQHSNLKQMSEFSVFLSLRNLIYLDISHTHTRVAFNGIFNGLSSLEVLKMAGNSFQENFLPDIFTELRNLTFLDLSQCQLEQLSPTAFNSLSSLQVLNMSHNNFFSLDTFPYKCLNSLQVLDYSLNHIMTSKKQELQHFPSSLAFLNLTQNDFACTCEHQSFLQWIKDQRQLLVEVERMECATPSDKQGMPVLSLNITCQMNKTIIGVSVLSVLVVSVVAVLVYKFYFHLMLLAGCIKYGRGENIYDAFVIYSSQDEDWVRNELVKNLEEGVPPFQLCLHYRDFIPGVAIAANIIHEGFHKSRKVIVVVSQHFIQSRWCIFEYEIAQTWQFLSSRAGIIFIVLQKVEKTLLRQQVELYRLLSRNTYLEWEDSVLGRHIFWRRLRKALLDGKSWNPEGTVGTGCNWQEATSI

[7] = molecular target: T1, Toll-like receptor 9 (Homo sapiens) (UniProt Q9NR96); experiment: Agonist activity at human TLR9
T1 sequence (whole entry): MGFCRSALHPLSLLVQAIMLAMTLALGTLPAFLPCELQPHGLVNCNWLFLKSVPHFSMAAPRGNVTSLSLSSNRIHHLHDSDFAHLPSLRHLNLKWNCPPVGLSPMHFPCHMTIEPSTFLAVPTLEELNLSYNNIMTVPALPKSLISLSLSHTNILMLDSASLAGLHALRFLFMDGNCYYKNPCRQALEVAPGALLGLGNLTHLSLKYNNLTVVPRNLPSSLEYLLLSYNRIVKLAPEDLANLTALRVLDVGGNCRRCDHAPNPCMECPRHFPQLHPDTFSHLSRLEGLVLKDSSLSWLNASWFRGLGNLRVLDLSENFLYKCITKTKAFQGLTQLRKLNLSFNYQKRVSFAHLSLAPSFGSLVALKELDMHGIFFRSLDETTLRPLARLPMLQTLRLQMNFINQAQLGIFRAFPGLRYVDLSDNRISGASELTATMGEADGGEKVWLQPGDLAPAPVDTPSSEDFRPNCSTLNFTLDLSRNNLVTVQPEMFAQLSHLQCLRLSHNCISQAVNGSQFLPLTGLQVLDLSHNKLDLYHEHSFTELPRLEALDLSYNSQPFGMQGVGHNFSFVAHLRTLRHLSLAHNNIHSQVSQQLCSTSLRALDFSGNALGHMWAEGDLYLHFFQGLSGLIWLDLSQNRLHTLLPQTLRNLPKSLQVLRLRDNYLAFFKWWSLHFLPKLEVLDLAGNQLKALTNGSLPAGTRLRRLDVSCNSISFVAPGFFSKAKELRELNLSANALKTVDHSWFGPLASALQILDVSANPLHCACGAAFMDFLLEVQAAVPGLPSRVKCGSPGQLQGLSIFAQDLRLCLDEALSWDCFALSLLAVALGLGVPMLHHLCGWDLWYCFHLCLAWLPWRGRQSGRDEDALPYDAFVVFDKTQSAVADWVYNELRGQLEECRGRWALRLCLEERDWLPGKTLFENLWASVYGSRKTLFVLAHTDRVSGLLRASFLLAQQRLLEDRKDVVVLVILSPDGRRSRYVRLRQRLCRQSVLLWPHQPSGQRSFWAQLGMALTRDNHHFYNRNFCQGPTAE

[8] = Metabolic stability in mouse liver microsomes assessed as compound remaining; format: ADME, Microsome
[9] = molecular target: Toll-like receptor 3 (Homo sapiens) (UniProt O15455); experiment: Agonist activity at human TLR3
Sequence of Toll-like receptor 3 (Homo sapiens) (O15455 whole entry): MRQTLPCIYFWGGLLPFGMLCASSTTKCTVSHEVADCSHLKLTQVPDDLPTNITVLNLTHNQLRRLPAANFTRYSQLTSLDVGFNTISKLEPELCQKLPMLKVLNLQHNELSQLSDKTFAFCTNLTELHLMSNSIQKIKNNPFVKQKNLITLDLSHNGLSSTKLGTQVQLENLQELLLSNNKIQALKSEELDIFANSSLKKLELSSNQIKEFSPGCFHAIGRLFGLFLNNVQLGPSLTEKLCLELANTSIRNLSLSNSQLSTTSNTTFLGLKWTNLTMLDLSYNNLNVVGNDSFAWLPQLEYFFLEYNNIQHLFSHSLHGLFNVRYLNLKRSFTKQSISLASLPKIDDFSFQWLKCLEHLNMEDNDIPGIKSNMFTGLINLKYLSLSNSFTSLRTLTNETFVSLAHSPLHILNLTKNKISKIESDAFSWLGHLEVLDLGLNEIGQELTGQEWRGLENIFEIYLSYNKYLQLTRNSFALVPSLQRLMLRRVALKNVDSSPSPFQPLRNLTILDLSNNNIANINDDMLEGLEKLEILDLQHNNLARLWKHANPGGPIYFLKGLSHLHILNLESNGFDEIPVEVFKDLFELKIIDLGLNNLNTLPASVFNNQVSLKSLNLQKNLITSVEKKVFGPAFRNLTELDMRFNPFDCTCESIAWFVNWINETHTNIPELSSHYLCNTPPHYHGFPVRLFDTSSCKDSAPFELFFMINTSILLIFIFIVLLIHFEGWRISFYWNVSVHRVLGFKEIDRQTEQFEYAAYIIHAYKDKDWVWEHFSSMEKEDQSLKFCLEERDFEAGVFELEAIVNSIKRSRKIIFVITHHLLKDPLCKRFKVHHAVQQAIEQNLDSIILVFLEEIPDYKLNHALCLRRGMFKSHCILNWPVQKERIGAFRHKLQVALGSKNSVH

[10] = Drug concentration in Balb/c mouse at […], iv measured after 5 min by LC-MS analysis; format: ADME, organism-based; settings: in vivo, dose 0.15 mg/kg, read-out: Drug uptake
Blood [11] = experiment: Induction of IP-10 secretion in mouse whole blood; format: functional, tissue-based
[12] = molecular target: Voltage-gated inwardly rectifying potassium channel KCNH2 (Homo sapiens, UniProt Q12809); experiment: Inhibition of hERG by patch clamp assay; format: toxicity
Sequence of Voltage-gated inwardly rectifying potassium channel KCNH2 (Q12809 whole entry): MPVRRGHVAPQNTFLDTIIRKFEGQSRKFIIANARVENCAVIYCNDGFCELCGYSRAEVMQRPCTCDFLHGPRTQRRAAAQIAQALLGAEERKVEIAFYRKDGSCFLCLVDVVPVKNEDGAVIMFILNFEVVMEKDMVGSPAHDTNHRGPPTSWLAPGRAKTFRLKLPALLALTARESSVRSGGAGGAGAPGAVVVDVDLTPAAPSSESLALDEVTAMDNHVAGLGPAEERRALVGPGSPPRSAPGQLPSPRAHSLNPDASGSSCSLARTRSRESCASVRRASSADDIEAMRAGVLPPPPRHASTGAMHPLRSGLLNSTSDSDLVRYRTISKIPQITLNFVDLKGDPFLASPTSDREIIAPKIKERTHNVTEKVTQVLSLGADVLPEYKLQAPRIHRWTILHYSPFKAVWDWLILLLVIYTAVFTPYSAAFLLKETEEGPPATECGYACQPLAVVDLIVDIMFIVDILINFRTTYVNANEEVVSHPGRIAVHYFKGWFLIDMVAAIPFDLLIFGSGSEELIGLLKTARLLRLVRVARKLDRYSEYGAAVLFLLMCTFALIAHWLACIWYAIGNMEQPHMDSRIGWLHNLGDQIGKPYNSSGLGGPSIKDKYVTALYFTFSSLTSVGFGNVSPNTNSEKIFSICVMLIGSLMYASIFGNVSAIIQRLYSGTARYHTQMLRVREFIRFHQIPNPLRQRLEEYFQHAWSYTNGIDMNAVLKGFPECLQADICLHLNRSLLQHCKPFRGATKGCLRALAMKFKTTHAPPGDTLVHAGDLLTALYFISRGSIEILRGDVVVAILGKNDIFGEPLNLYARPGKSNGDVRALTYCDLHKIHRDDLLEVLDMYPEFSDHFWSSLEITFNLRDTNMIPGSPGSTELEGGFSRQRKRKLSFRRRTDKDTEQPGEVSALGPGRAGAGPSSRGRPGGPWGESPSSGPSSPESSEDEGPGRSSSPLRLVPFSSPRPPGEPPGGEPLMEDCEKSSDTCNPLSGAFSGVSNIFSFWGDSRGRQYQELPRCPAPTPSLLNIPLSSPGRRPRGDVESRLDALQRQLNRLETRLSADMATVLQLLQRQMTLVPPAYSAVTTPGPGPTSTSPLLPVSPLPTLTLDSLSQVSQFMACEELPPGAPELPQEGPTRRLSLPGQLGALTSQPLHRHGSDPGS

CT26 = experiment: Cytotoxicity against mouse CT26 cells; format: toxicity, cell-based
Blood [13] = experiment: Induction of MX1 secretion in mouse whole blood; format: functional, tissue-based
[14] = AUClast in Balb/c mouse at 0.5 mg/kg, iv measured after 2 hrs by LC-MS analysis; format: ADME, organism-based; parameters: dose 0.5 mg/kg, time 2 hrs, route iv; settings: in vivo
[15] = Protein binding in cynomolgus monkey plasma assessed as free fraction; format: ADME, cell-free, Macaca fascicularis
Blood [16] = experiment: Induction of IFIT3 secretion in mouse whole blood; format: functional, tissue-based
[17] = molecular target: T2, Nuclear receptor subfamily 1 group I member 2 (Homo sapiens, UniProt O75469); experiment: Transactivation of PXR (unknown origin)
T2 sequence (O75469 whole entry): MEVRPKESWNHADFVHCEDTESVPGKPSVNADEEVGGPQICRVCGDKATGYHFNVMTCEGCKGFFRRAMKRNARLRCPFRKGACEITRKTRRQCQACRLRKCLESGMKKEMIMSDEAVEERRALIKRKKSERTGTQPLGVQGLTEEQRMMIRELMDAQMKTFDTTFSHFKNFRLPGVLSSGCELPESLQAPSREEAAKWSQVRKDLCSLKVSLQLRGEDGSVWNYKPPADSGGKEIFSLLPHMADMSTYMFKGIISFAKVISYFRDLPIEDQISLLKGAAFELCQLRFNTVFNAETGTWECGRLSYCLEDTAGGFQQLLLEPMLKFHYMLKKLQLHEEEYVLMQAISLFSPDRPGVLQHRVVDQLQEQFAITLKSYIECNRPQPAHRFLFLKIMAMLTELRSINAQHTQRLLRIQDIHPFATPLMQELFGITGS

[18] = Permeability of compound across basolateral to apical side in human Caco-2 cells; format: ADME, cell-based; settings: read-out: permeability
Blood [19] = experiment: Induction of IFIT3 secretion in human whole blood; format: functional, tissue-based
Jurkat = experiment: Cytotoxicity against human Jurkat cells; format: toxicity, cell-based
[20] = Protein binding in mouse plasma assessed as free fraction; format: ADME, cell-free
in vitro = settings: PHA-activated T cells

Sequence of Toll-like receptor 2 (Homo sapiens) (O60603 whole entry): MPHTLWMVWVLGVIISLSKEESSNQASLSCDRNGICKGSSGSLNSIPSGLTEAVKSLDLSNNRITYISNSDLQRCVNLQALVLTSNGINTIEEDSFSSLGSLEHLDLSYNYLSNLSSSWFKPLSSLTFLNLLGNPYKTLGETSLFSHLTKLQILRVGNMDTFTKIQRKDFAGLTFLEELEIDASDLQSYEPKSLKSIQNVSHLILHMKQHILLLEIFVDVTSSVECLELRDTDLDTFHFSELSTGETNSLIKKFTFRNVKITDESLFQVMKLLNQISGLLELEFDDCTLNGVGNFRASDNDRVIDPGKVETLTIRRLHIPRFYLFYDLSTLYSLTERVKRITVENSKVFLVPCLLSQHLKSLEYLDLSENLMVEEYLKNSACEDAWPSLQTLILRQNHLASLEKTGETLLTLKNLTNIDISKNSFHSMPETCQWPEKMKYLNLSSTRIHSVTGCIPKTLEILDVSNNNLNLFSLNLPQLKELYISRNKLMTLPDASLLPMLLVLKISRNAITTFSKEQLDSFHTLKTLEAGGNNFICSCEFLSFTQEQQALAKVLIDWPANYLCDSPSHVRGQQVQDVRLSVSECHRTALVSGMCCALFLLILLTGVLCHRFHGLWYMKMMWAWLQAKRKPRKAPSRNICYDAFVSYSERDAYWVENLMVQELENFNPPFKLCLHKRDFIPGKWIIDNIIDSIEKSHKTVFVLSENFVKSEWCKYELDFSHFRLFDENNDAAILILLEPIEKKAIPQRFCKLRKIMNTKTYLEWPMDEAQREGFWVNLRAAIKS

## CCC[C@@H](CCO)Nc1nc(N)nc2cnn(Cc3ccc(CNC4CCOCC4)cc3OC)c12
[1]
  EC: > 5 µM
[2]
  Papp: 1.58 ×10⁻⁶ cm/s
[3]
  AUC(0-t) at 2 h: 0.075 µM·h
Blood [4]
  EC50: 631 nM
[5]
  half-life: 16 min
[6]
  EC: > 5 µM
[7]
  EC: > 5 µM
[8]
  Stability: 81%
[9]
  EC: > 5 µM
[10]
  concentration at 5 min: 85 nM
Blood [11]
  EC50: 0.32 nM
[12]
  IC50: ≥ 45000 nM
CT26
  EC: > 25 µM
Blood [13]
  EC50: 0.18 nM
[14]
  AUC(0-t) at 2 h: 0.183 µM·h
[15]
  fraction unbound: 0.31
Blood [16]
  EC50: 0.13 nM
[17]
  EC: > 50 nM
[18]
  Papp B→A: 10.9 ×10⁻⁶ cm/s
Blood [19]
  EC50: 0.11 nM
Jurkat
  EC: > 25 µM
[20]
  fraction unbound: 0.41
In vitro
  IC50: > 25000 nM

Source: ChEMBL document CHEMBL5357068, “Discovery of Novel TLR7 Agonists as Systemic Agent for Combination With aPD1 for Use in Immuno-oncology” (ACS Med Chem Lett, 2024)
